These results are taken from publication PMC11604048, “Constrained TACC3 peptidomimetics for a non-canonical protein–protein interface elucidate allosteric communication in Aurora-A kinase” (Chemical Science, 2024).

Read-outs that look alike come from different tables or passages of the source. *1 amine or outer side, *2 acyl side, *3 side chain or, on linkers, in order; H or OH if unused. Where a SMILES comes first, the peptide text is derived from it. Bridges are numbered along the chain shown (N, C = ends). Biphenyl(4,4'-CH2)2 = c1cc(-c2ccc(C[*:2])cc2)ccc1C[*:1]; Maleimide(3,4-diyl) = O=C1NC(=O)C([*:2])=C1[*:1] Some results are limits rather than exact numbers.

The experiment concerns the target T1, Aurora-A122-403-C290A/C393A (Homo sapiens, UniProt O14965, C290A/C393A).
T1 construct: Human Aurora-A kinase domain 122-403 wild-type or C290A/ C393A mutant; His tag (pET30TEV vector) (N, cleaved yes); made in house; host or cells: E. coli RIL, co-expressed with lambda phosphatase (Aurora-A); tracer by solid phase synthesis
T1 sequence (O14965 122-403 C290A/C393A): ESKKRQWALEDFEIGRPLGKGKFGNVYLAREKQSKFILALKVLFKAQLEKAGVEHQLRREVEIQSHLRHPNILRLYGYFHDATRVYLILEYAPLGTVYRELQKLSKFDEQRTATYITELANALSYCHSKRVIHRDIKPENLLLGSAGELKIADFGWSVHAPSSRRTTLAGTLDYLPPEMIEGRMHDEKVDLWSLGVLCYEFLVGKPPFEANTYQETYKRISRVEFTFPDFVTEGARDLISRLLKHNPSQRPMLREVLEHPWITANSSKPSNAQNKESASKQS
Briefly: Competition FA assay against FAM-Ahx-TACC3 522-536 tracer. Type of experiment: binding. On the procedure: Once completed, the mixtures were transferred into SPPS fritted reaction vessels and washed with H2O (5X, 10 mL, 2 min), DMF (5X, 5mL, 2 min) and DCM (5X, 5 mL, 2 min). The clean resins were dried under vacuum and the cyclic peptides cleaved from the resin following the general procedures described in previous sections. After Et2O precipitation, the crude materials were freeze-dried and redissolved in H2O/MeCN/TFA 90/10/0.1% v/v for preparative HPLC purification.
All disulfide peptide variants (ox) were produced in situ from their free-thiol solid precursors. For this, 2 mg of the pure peptide materials were dissolved in aqueous DMSO 33% v/v to a 10 mM concentration and were left open to air oxidation at room temperature overnight. […]
the peptides were employed for FA competition assays and IC50 evaluation without further additional […]
Fluorescence anisotropy (FA) assays – General information.
All assays were performed using 384-well plates(Greiner Bio-one, UK). […]
produced as described previously.11 All samples were prepared in 25 mM Tris,150 mM NaCl, 5 mM MgCl2, pH= 7.5, unless otherwise stated, and tested in triplicate using an EnVisionTM 2103 MultiLabel plate reader (PerkinElmer; Waltham, MA, USA).The parameters were set as follows: Excitation wavelength = 480 nm (30 nm bandwidth) and emission wavelength = 535 nm (30 nm bandwidth). Measured data were processed and analysed as previously described.12 Specifically, the perpendicular intensity (P) and parallel intensity (S) were subtracted by the control values and used for calculations of intensity and anisotropy using the following Equations 1, 2, 3, 4, and 5:
I= (2PG) + S Eq. (SI − 5)
r = (S − PG) Eq. (SI − 6)
L = r − r௠௜௡ Eq. (SI − 7)
y = (k + x + [FL]) − ඥ(k + x + [FL]2 − 4 ∗ x ∗ [FL]) Eq. (SI − 8)
y = r + r௠௜௡ − r௠௔௫ Eq. (SI − 9)
Where I = total intensity; P = perpendicular intensity; S = parallel intensity; G = instrument factor; r = anisotropy; Lb = ligand bound fraction; λ = change in intensity between bound and unbound states which […]
FA direct binding assays. […]
starting from 700 μM, diluted over 24 points in a 1/2 regime using the FAM-Ahx-labeled peptides at a final fixed concentration of 50 nM per well.
FA competition assays were performed using the same plates and buffer as described above, with the initial […]
14 points in a 1/2 regime. […]
after 4 h of incubation to enable appropriate sample equilibration. To prevent sample oxidation, when sulfhydryl peptides were analyzed DTT was added to the buffer (5 mM). In competition mode, the average anisotropy and the average standard deviation of the values derived from equation SI-6 were calculated and fit to a sigmoidal logistic model (equation SI-9) using Origin 2021. When using peptides for which full […]
For consistency, all the data […]
indicating the corresponding SD. […]

Where [1] appears, read: as E1, free-sulfhydryl (reduced) species, DTT 5 mM in buffer, WT control (+DTT), mean ± SD, n = 3, read-out: IC50 (red).
[2] abbreviates: as E1, Table S3 (mal): maleimide-constrained species, WT value is an individual replica control assay, mean ± SD, n = 3, read-out: IC50 (mal).
[3] abbreviates: as E1, oxidised (disulfide) species made in situ from 10 mM stock in aqueous DMSO 33% v/v, air, overnight, WT control (+DMSO) given the same DMSO incubation, mean ± SD, n = 3, read-out: IC50 (ox).

With `CC(=O)N[C@@H](CCC(=O)O)C(=O)N[C@@H](CCC(=O)O)C(=O)N[C@@H](CO)C(=O)N[C@@H](Cc1ccccc1)C(=O)N[C@H]1CSCc2ccc(cc2)-c2ccc(cc2)CSC[C@@H](C(=O)N[C@@H](CC(C)C)C(=O)NCC(=O)N[C@H](C(=O)NCC(=O)N[C@@H](C)C(N)=O)[C@@H](C)O)NC(=O)[C@H](CCC(=O)O)NC(=O)[C@H](C)NC(=O)[C@@H]2CCCN2C(=O)[C@H](CC(=O)O)NC1=O` [TACC3 522-536 R526C/V531C (Bph)] (Ac-EESFCDPAECLGTGA-NH2; linker 5-10 via Biphenyl(4,4'-CH2)2), the IC50 (as E1, Table S3 column (Bph): biphenyl-constrained species, WT value is an individual replica control assay, mean ± SD, n = 3, SD, read-out: IC50 (Bph)) was determined as 249 ± 43 µM.
For `CC(=O)N[C@@H](CCC(=O)O)C(=O)N[C@@H](CS)C(=O)N[C@@H](CO)C(=O)N[C@@H](Cc1ccccc1)C(=O)N[C@@H](CS)C(=O)N[C@@H](CC(=O)O)C(=O)N1CCC[C@H]1C(=O)N[C@@H](C)C(=O)N[C@@H](CCC(=O)O)C(=O)N[C@H](C(=O)N[C@@H](CC(C)C)C(=O)NCC(=O)N[C@H](C(=O)NCC(=O)N[C@@H](C)C(N)=O)[C@@H](C)O)C(C)C` [TACC3 522-536 E523C/R526C (red)] (Ac-ECSFCDPAEVLGTGA-NH2), the IC50 under setting [1] was not below 500 µM.
For `COc1ccc(C[C@H](NC(=O)[C@H](CO)NC(=O)[C@H](CCC(=O)O)NC(=O)[C@H](CCC(=O)O)NC(C)=O)C(=O)N[C@@H](CCCNC(=N)N)C(=O)N[C@@H](CC(=O)O)C(=O)N2CCC[C@H]2C(=O)N[C@@H](C)C(=O)N[C@@H](CCC(=O)O)C(=O)N[C@H](C(=O)N[C@@H](CC(C)C)C(=O)NCC(=O)N[C@H](C(=O)NCC(=O)N[C@@H](C)C(N)=O)[C@@H](C)O)C(C)C)cc1` [TACC3 522-536_F525Y(OMe)] (Ac-EESY(Me)RDPAEVLGTGA-NH2), where the note is “read-out: IC50”, the IC50 was not below 300 µM.
Consider `CC(=O)N[C@@H](CCC(=O)O)C(=O)N[C@@H](CCC(=O)O)C(=O)N[C@H]1CSC2=C(SC[C@@H](C(=O)N3CCC[C@H]3C(=O)N[C@@H](C)C(=O)N[C@@H](CCC(=O)O)C(=O)N[C@H](C(=O)N[C@@H](CC(C)C)C(=O)NCC(=O)N[C@H](C(=O)NCC(=O)N[C@@H](C)C(N)=O)[C@@H](C)O)C(C)C)NC(=O)[C@H](CCCNC(=N)N)NC(=O)[C@H](Cc3ccccc3)NC1=O)C(=O)NC2=O` [TACC3 522-536 S524C/D527C (mal)] (Ac-EECFRCPAEVLGTGA-NH2; linker 3-6 via Maleimide(3,4-diyl) (inferred)), for which, under setting [2], the IC50 was not below 500 µM.
Turning to `CC(=O)N[C@H]1CSSC[C@@H](C(=O)N[C@@H](C)C(=O)N[C@@H](CCC(=O)O)C(=O)N[C@H](C(=O)N[C@@H](CC(C)C)C(=O)NCC(=O)N[C@H](C(=O)NCC(=O)N[C@@H](C)C(N)=O)[C@@H](C)O)C(C)C)NC(=O)[C@H](CC(=O)O)NC(=O)[C@H](CCCNC(=N)N)NC(=O)[C@H](Cc2ccccc2)NC(=O)[C@H](CO)NC(=O)[C@H](CCC(=O)O)NC1=O` [TACC3 522-536 E522C/P528C (ox)] (Ac-CESFRDCAEVLGTGA-NH2; disulfide 1-7), under setting [3], the IC50 is not below 500 µM.
Regarding `CC(=O)N[C@@H](CCC(=O)O)C(=O)N[C@@H](CCC(=O)O)C(=O)N[C@@H](CO)C(=O)NC(C)(Cc1ccccc1)C(=O)N[C@@H](CCCNC(=N)N)C(=O)N[C@@H](CC(=O)O)C(=O)N1CCC[C@H]1C(=O)N[C@@H](C)C(=O)N[C@@H](CCC(=O)O)C(=O)N[C@H](C(=O)N[C@@H](CC(C)C)C(=O)NCC(=O)N[C@H](C(=O)NCC(=O)N[C@@H](C)C(N)=O)[C@@H](C)O)C(C)C` (stereo partly drawn) [TACC3 522-536_(α-Me) -525F], the IC50 (read-out: IC50) was not below 500 µM.
As to `CC(=O)N[C@@H](CCC(=O)O)C(=O)N[C@@H](CCC(=O)O)C(=O)N[C@H]1CSSC[C@@H](C(=O)N2CCC[C@H]2C(=O)N[C@@H](C)C(=O)N[C@@H](CCC(=O)O)C(=O)N[C@H](C(=O)N[C@@H](CC(C)C)C(=O)NCC(=O)N[C@H](C(=O)NCC(=O)N[C@@H](C)C(N)=O)[C@@H](C)O)C(C)C)NC(=O)[C@H](CCCNC(=N)N)NC(=O)[C@H](Cc2ccccc2)NC1=O` [TACC3 522-536 S524C/D527C (ox)] (Ac-EECFRCPAEVLGTGA-NH2; disulfide 3-6), under setting [3], the IC50 is not below 500 µM.
On to `CC(=O)N[C@@H](CC(C)C)C(=O)N[C@@H](CCC(=O)O)C(=O)N[C@H]1CSCc2ccc(cc2)-c2ccc(cc2)CSC[C@@H](C(=O)N[C@@H](CC(=O)O)C(=O)N2CCC[C@H]2C(=O)N[C@@H](C)C(=O)N[C@@H](CCC(=O)O)C(=O)N[C@H](C(=O)N[C@@H](CC(C)C)C(N)=O)C(C)C)NC(=O)[C@H](Cc2ccccc2)NC(=O)[C@H](CO)NC(=O)[C@H](CCC(=O)O)NC(=O)[C@H](CCC(=O)O)NC(=O)[C@H](CCCCN)NC1=O` [TACC3 518-532 L520C/R526C (Bph)] (Ac-LECKEESFCDPAEVL-NH2; linker 3-9 via Biphenyl(4,4'-CH2)2), for which the “fold enhanced inhibitory potency (IC50) compared to the WT peptide” value (competition FA IC50 ratio vs WT) is on record as “up to 4 fold”.
In the case of `CC(=O)N[C@@H](CCC(=O)O)C(=O)N[C@@H](CCC(=O)O)C(=O)N[C@@H](CO)C(=O)N[C@@H](CS)C(=O)N[C@@H](CCCNC(=N)N)C(=O)N[C@@H](CC(=O)O)C(=O)N[C@@H](CS)C(=O)N[C@@H](C)C(=O)N[C@@H](CCC(=O)O)C(=O)N[C@H](C(=O)N[C@@H](CC(C)C)C(=O)NCC(=O)N[C@H](C(=O)NCC(=O)N[C@@H](C)C(N)=O)[C@@H](C)O)C(C)C` [TACC3 522-536 F525C/P528C (red)] (Ac-EESCRDCAEVLGTGA-NH2), the IC50 under setting [1] is not below 500 µM.
Consider `CC(=O)N[C@@H](CCC(=O)O)C(=O)N[C@@H](CCC(=O)O)C(=O)N[C@@H](CO)C(=O)N[C@@H](Cc1ccccc1)C(=O)N[C@@H](CCCNC(=N)N)C(=O)N[C@@H](CC(=O)O)C(=O)N1CCC[C@H]1C(=O)N[C@@H](CS)C(=O)N[C@@H](CCC(=O)O)C(=O)N[C@H](C(=O)N[C@@H](CS)C(=O)NCC(=O)N[C@H](C(=O)NCC(=O)N[C@@H](C)C(N)=O)[C@@H](C)O)C(C)C` [TACC3 522-536 A529C/L532C (red)] (Ac-EESFRDPCEVCGTGA-NH2), for which the IC50 under setting [1] was not below 500 µM.
`CC(=O)N[C@@H](CCC(=O)O)C(=O)N[C@@H](CCC(=O)O)C(=O)N[C@@H](CO)C(=O)N[C@@H](Cc1ccccc1)C(=O)N[C@@H](CCCNC(=N)N)C(=O)N[C@@H](CC(=O)O)C(=O)N1CCC[C@H]1C(=O)N[C@@H](C)C(=O)N[C@@H](CCC(=O)O)C(=O)N[C@H](C(=O)N[C@@H](CC(C)C)C(=O)N[C@H]1CSC2=C(SC[C@@H](C(N)=O)NC(=O)CNC(=O)[C@H]([C@@H](C)O)NC1=O)C(=O)NC2=O)C(C)C` [TACC3 522-536 G533C/A536C (mal)] (Ac-EESFRDPAEVLCTGC-NH2; linker 12-15 via Maleimide(3,4-diyl)): under setting [2], the IC50 is not below 500 µM.
For the compound `CC(=O)N[C@@H](CCC(=O)O)C(=O)N[C@@H](CCC(=O)O)C(=O)N[C@@H](CO)C(=O)N[C@@H](Cc1ccccc1)C(=O)N[C@@H](CS)C(=O)N[C@@H](CC(=O)O)C(=O)N1CCC[C@H]1C(=O)N[C@@H](C)C(=O)N[C@@H](CCC(=O)O)C(=O)N[C@@H](CS)C(=O)N[C@@H](CC(C)C)C(=O)NCC(=O)N[C@H](C(=O)NCC(=O)N[C@@H](C)C(N)=O)[C@@H](C)O` [TACC3 522-536 R526C/V531C (red)] (Ac-EESFCDPAECLGTGA-NH2), under setting [1], the IC50 is not below 500 µM.

As a reminder, the IC50 is the point on the concentration scale where inhibition reaches its midpoint.
